Assay results as given in patent US6531512B1, “Method of treating cancer in patients having a deficiency in p53 tumor suppressor gene” (Health Research Inc., priority 1998, dated 2003).
“Also recorded” adds a separate entry of the source. Marks after values point to notes of the source that are not given here.

Columns and labels:
[1] = test system: MALME-3M human melanoma cells; assay: Cell growth of MALME-3M cells (Coulter Counter); type: cell-based; conditions: 10 μM
Experimental: (§1) MALME-3M human melanoma cells containing wt-p53 (American Tissue Type Culture Collection, Bethesda, Md.) and human SK-MEL-28 cells containing mt-p53 (American Tissue Type Culture Collection, Bethesda, Md.) were cultured as a monolayer in RPMI 1640 medium containing 10% Nu-Serum (Collaborative Research Products, Bedford, Mass.), 1 mM aminoguanidine, penicillin (50 units/ml) and streptomycin (50 μg/ml) as described by Kramer et al, J. Biol. Chem., 270:2124-32 (1995) and Kramer et al., Cancer Res., 57:5521-5527 (1997).
(§2) MALME-3M cells were cultured as described in Example 1. The cells were seeded by adding 1×10^5 cells to a T-25 vented cell culture flask. After 24 hours, the asynchronous cell cultures were treated with 10 μM N^1, N^11-diethylnorspermine (DENSPM) prepared by dissolving DENSPM in distilled water and sterilizing the solution by filtration through a 0.22 micron Millipore membrane. The cells were treated by continuous exposure to DENSPM for 6 days (i.e., the polyamine was added to the cell culture at T=0 and the culture was incubated for the desired amount of time). The number of viable MALME-3M cells were monitored electronically using a Model ZM Coulter Counter (Coulter Electronics, Hialeah, Fla.). Untreated MALME-3M cell cultures were used as controls.
(§3) MALME-3M human melanoma cells were cultured as described in Example 1 and treated continuously with 10 μM DENSPM or 10 μM spermine (SPM) for 48 hours. SK-MEL-28 cells were also cultured as described in Example 1 and treated with 10 μM DENSPM for 24 hours. Untreated cells were used as a control.
(§4) The effect of DENSPM and spermine on cell growth was monitored using a Coulter Counter (see Example 2). The effect on cell cycle was monitored by flow cytometry as described in Example 3.

[2] = test system: SK-MEL-28 human melanoma cells; assay: Cell growth / apoptotic response of SK-MEL-28 cells (Coulter Counter, growth kinetics); type: cell-based
Experimental: as §1, §2, §3
The effect of DENSPM and spermine on cell growth was monitored using a Coulter Counter (see Example 2). The effect on cell cycle was monitored by flow cytometry as described in Example 3. […]

[3] = test system: SK-MEL-28 human melanoma cells; assay: Cell cycle distribution of SK-MEL-28 cells by flow cytometry; type: cell-based; conditions: SK-MEL-28 (mt-p53), attached cells, 10 μM, 24 hours treatment (footnote)
Experimental: MALME-3M cells were cultured as described in Example 1 and treated with 10 μM DENSPM as described in Example 2. Cell cycle arrest was monitored using a FACScan flow cytometry unit (Becton Dickinson, San Jose, Calif.) according to the method of Krishan (1975) J. Cell Biol. 66:[…]. Untreated MALME-3M cell cultures were used as controls.
as §3, §4

[4] = test system: ornithine decarboxylate (ODC); assay: Polyamine enzyme activity in treated melanoma cells: ODC; type: cell-based, human; conditions: for ODC activity: 10 μM
Experimental: as §3, with “treated” for “treated continuously”, “as described in Example 4.” for “for 48 hours.”, “as describe in Example 4.” for “for 24 hours.”
After treatment with DENSPM or spermine, biochemical parameters including polyamine enzymes activity, polyamine pools and analog accumulation were monitored as described by Kramer et al, J. Biol. Chem., 270:2124-32 (1995) and Kramer et al., Cancer Res., 57:5521-5527 (1997). Polyamine enzyme activity was monitored for ornithine […] (ODC); S-adenosylmethionine decarboxylase (SAMDC); and spermidine/spermine N^1-acetyltransferase (SSAT). Polyamine pools was monitored for putrescine (Put); spermidine (Spd); and spermine (Spm).
Enzyme activity and polyamine pools were measured as described in Example 5.

SK-MEL-28 cells = assay: Apoptosis by proton NMR of membrane lipids (methylene/methyl ratio); type: cell-based, human; conditions: 10 μM
Experimental: Apoptosis of MALME-3M and SK-MEL-28 cells due to treatment with 10 μM DENSPM was quantified using proton nuclear magnetic resonance (NMR) spectroscopy. NMR was used to detect membrane phospholipid spectral intensity changes which correlate with surface expression of phosphatidylserine, an early marker of apoptosis. Changes in methylene and methyl peaks were detected by the […] described by Blankenberg et al., Blood, 89:3778-3786 (1997).
Intensity changes in membrane lipids was measured using NMR after 72 hours of continuous treatment with 10 μM DENSPM. […] The SK-MEL-28 cells undergo a rapid spectral ratio change which correlates with the massive cell loss seen in FIG. 4. Maximal cell death occurred by 48 hours in SK-MEL-28 cells. The data represent the mean ratio±standard deviation.
For perspective, a methylene to methyl spectral ratio of about 1 is typical of untreated cells while a ratio of about 3 is the maximum attainable with most apoptotic responses. Thus, the ratio of 2.6 observed with DENSPM-treated SK-MEL-28 cells at 48 hours represents a full scale response.

[5] = MALME-3M (wt-p53), Table 2 (24 hours treatment)
[6] = SK-MEL-28 cells, 24 hours, Table 4

CCNCCCNCCCNCCCNCC [DENSPM, N^1,N^11-diethylnorspermine]
% Control Growth ([1]; MALME-3M (wt-p53), 48 hours): 54%
% Growth Control [1, 5]: 83%
time course of viable cell number ([1]; MALME-3M, asynchronous, continuous exposure 6 days): steady growth for the first 24 hours, then a plateau and then began to decline in number from 48 hours onwards
% Growth Control ([2]; SK-MEL-28 (mt-p53), 10 μM, Table 2, 24 hours): 26%
% Control Growth [2, 6]: 30%
cell growth and/or apoptosis response ([2]; SK-MEL-28 cells, growth kinetic analysis): massive and rapid apoptotic response; also recorded: rapid cytotoxic response
% Total Cells, G1 [3]: 74** %
% Total Cells, G2/M [3]: 9** %
% Total Cells, S [3]: 17** %
ODC activity [4, 5]: 30 pmol/hr/mg protein
ODC activity ([4]; SK-MEL-28 (mt-p53), Table 2, 24 hours): 5 pmol/hr/mg protein
Enzyme Activities, ODC [4, 6]: 37 pmol/hr/mg protein
time of maximal cell death (SK-MEL-28 cells): ≤ 48 h
methylene to methyl spectral ratio (SK-MEL-28 cells; 48 hours): 2.6
